{"source": "patent US12083084B2", "about": "“Method for enhancing energy production and metabolism in cells” (REPLICON HEALTH OY, priority 2013, dated 2024)", "key": {"[1]": {"tested_on": "peripheral leukocytes", "assay": "Gene expression from in vivo blood samples (TRAC)", "parameters": "species or system human", "settings": "for AOX1 gene expression, Change % / CYP1A2 gene expression, Change % / CYP2B6 gene expression, Change % / CYP2C9 gene expression, Change % / CYP3A4 gene expression, Change % / G6PD gene expression, Change % / GPD2 gene expression, Change % / GRHPR gene expression, Change % / HO-1 gene expression, Change % / MT-CO1 gene expression, Change % / MT-CYB gene expression, Change % / PGC-1a gene expression, Change %: S1 and S9 combined, vs control", "protocol": "In the above 4.5 day experiment samples of peripheral leukocytes were collected from S1 and S9 in fasting condition (0 h), and also 1 hour (1 h) after taking 75 grams of glucose (Glutole, Biofile Pharma, 330 ml) for glucose tolerance test. Additional gene expression measurement was done from a separate 12 hour treatment for S1 and S9. In the 12 h test only two last doses of DGAcs were administered, first dose 12 h earlier than the blood sample, and the last/second dose 2.5 h earlier in the same morning (like in 4.5 day experiment). For the statin group, S10 and S11, only one gene expression measurement was done in two hours after the fasting blood sample. Leukocytes were immediately separated from blood samples, and after separation immediately lysed by stop solution and stored in freezer according to instructions by the service provider.\nFor S1 and S9 there were altogether 4 measurement points for gene expression, and only 3 repeats for each measurement. Results are presented in Table 6 below; changes of gene expressions compared to the control from peripheral leukocytes are presented. The Gene Expression analyses was conducted using TracTechnology by PlexPress Ltd in Helsinki. The TRAC data presented in Table 6 has been generated according to process instructions with quality tested instruments and reagents. PlexPress Quality Management System is set up according to the ISO 9001 standard. P-values are from t-distribution of a one sided test of deviation from control average, and are presented only when below 10%."}, "[2]": {"tested_on": "rat cortical neurons", "assay": "LDH viability/cytotoxicity of rat cortical neurons (calorie restriction, high doses)", "type": "cell-based", "protocol": "Cell culture. Cortical neurons were dissected from P1 rats and cultured in 96-well plates up to 7 days in the medium containing: neurobasal medium, 1.5% B27 supplement, 1 mM L-glutamine, penicillin/streptomycin.\nTreatment of cells with DGAcs was done in two different ways. In all studies the total cultivation time was 7 days (7th day in vitro=7 DIV). In the first study a clear element of calorie restriction (CR) was built in to the standard model provided by the CRO. The other 24 hour pretreatment was without CR (more info in examples 2.1 and 2.2 below). Separately also exceptionally high doses of DGAcs were administered to neurons. […] (Effective dose was […]).\nCell Viability/Cytotoxicity. Cell Viability was Detected by LDH Tests Like in Examples 1.1-1.2.\nCell treatment: concentration of DGAcs (10, 50 and 100 μg/ml) was added into cell culture medium at 4 DIV. After 24 h (at 5 DIV) 25% of medium was changed to fresh containing 1.5× concentration of DGAcs. Same treatment (change 25% with 1.5× concentration) was repeated at 6 DIV. The cells were transferred into Mg^2+-free Locke's buffer containing the same concentrations of DGAcs immediately before imaging experiments (at 7 DIV). For controls the same amount of medium was changed without addition of DGAcs.\nCell treatment according to the protocol renewed only 25% of the medium during 5 DIV and 6 DIV, meaning that neurons received only very small amounts of new nutrition, i.e. experienced calorie restrictions (CR). […] This same phenomenon of increased cell death in CR was already seen with human hepatocytes in previous examples. Likely explanation is the same: DGAcs administration increases metabolic activity in neurons and/or their (aerobic) ATP production and consumption, which leads to enhanced cell cycle control and programmed cell death (apoptosis) in nutritional scarcity. […] Viability loss compared to zero control was highest and statistically significant in 10 μg/ml group but also all other groups experienced loss of viability."}, "[3]": {"assay": "400 m running experiment", "type": "in vivo, human", "protocol": "Two healthy male volunteers S1 and S3 from Example 2.1 participated in 400 m running experiment with 4 day administration of DGAcs and without it. The experiments were done at 2-3 pm in the afternoon. In DGA experiment additional dose of DGAcs (5 mg/kg) was taken before lunch at 11 am, and lunch was eaten at 12 am. […] The length of the 400 m exercise at full speed was too much especially for S1. […] This difference was striking especially for S3 and can be as a result in decreased acidosis."}, "[4]": {"settings": "12 hour + 0 h test (two doses, fasting)"}, "[5]": {"settings": "12 hour + 1 h test (1 h after 75 g glucose)"}, "[6]": {"settings": "4.5 day + 1 h test (1 h after 75 g glucose)"}}, "note": "“Also recorded” adds a separate entry of the source."}
{"smiles": "O.O.O=C([O-])[C@H](O)CO.O=C([O-])[C@H](O)CO.[Ca+2]", "note": "[DGAcs, D-glyceric acid, calcium salt dehydrate]", "values": [{"measurement": "AOX1 gene expression, Change %", "setting": "[1]; [4]", "value": "−6", "unit": "%"}, {"measurement": "CYP1A2 gene expression, Change %", "setting": "[1]; [4]", "value": 100, "unit": "%"}, {"measurement": "CYP2B6 gene expression, Change %", "setting": "[1]; [4]", "value": "−14", "unit": "%"}, {"measurement": "CYP2C9 gene expression, Change %", "setting": "[1]; [4]", "value": 8, "unit": "%"}, {"measurement": "CYP3A4 gene expression, Change %", "setting": "[1]; [4]", "value": "−17", "unit": "%"}, {"measurement": "G6PD gene expression, Change %", "setting": "[1]; [4]", "value": 3, "unit": "%"}, {"measurement": "GPD2 gene expression, Change %", "setting": "[1]; [4]", "value": 24, "unit": "%"}, {"measurement": "GRHPR gene expression, Change %", "setting": "[1]; [4]", "value": "−26", "unit": "%"}, {"measurement": "HO-1 gene expression, Change %", "setting": "[1]; [4]", "value": "−31", "unit": "%"}, {"measurement": "MT-CO1 gene expression, Change %", "setting": "[1]; [4]", "value": "−10", "unit": "%"}, {"measurement": "MT-CYB gene expression, Change %", "setting": "[1]; [4]", "value": "−2", "unit": "%"}, {"measurement": "PGC-1a gene expression, Change %", "setting": "[1]; [4]", "value": "−3", "unit": "%"}, {"measurement": "AOX1 gene expression, Change %", "setting": "[1]; [5]", "value": 8, "unit": "%"}, {"measurement": "CYP2B6 gene expression, Change %", "setting": "[1]; [5]", "value": 8, "unit": "%"}, {"measurement": "CYP2C9 gene expression, Change %", "setting": "[1]; [5]", "value": 18, "unit": "%"}, {"measurement": "CYP3A4 gene expression, Change %", "setting": "[1]; [5]", "value": "−45", "unit": "%"}, {"measurement": "G6PD gene expression, Change %", "setting": "[1]; [5]", "value": 18, "unit": "%"}, {"measurement": "GPD2 gene expression, Change %", "setting": "[1]; [5]", "value": 23, "unit": "%"}, {"measurement": "GRHPR gene expression, Change %", "setting": "[1]; [5]", "value": 6, "unit": "%"}, {"measurement": "HO-1 gene expression, Change %", "setting": "[1]; [5]", "value": "−54", "unit": "%"}, {"measurement": "MT-CO1 gene expression, Change %", "setting": "[1]; [5]", "value": 4, "unit": "%"}, {"measurement": "MT-CYB gene expression, Change %", "setting": "[1]; [5]", "value": 2, "unit": "%"}, {"measurement": "PGC-1a gene expression, Change %", "setting": "[1]; [5]", "value": "−21", "unit": "%"}, {"measurement": "CYP1A2 gene expression, Change %", "setting": "[1]; 4.5 day + 0 h test (fasting)", "value": 62, "unit": "%"}, {"measurement": "CYP2B6 gene expression, Change %", "setting": "[1]; 4.5 day + 0 h test (fasting)", "value": 73, "unit": "%"}, {"measurement": "CYP2C9 gene expression, Change %", "setting": "[1]; 4.5 day + 0 h test (fasting)", "value": 0, "unit": "%"}, {"measurement": "CYP3A4 gene expression, Change %", "setting": "[1]; 4.5 day + 0 h test (fasting)", "value": 67, "unit": "%"}, {"measurement": "G6PD gene expression, Change %", "setting": "[1]; 4.5 day + 0 h test (fasting)", "value": 9, "unit": "%"}, {"measurement": "GPD2 gene expression, Change %", "setting": "[1]; 4.5 day + 0 h test (fasting)", "value": 31, "unit": "%"}, {"measurement": "GRHPR gene expression, Change %", "setting": "[1]; 4.5 day + 0 h test (fasting)", "value": 70, "unit": "%"}, {"measurement": "HO-1 gene expression, Change %", "setting": "[1]; 4.5 day + 0 h test (fasting)", "value": 82, "unit": "%"}, {"measurement": "MT-CO1 gene expression, Change %", "setting": "[1]; 4.5 day + 0 h test (fasting)", "value": 24, "unit": "%"}, {"measurement": "MT-CYB gene expression, Change %", "setting": "[1]; 4.5 day + 0 h test (fasting)", "value": 22, "unit": "%"}, {"measurement": "CYP1A2 gene expression, Change %", "setting": "[1]; [6]", "value": 14, "unit": "%"}, {"measurement": "CYP2B6 gene expression, Change %", "setting": "[1]; [6]", "value": 147, "unit": "%"}, {"measurement": "CYP2C9 gene expression, Change %", "setting": "[1]; [6]", "value": 46, "unit": "%"}, {"measurement": "CYP3A4 gene expression, Change %", "setting": "[1]; [6]", "value": 69, "unit": "%"}, {"measurement": "G6PD gene expression, Change %", "setting": "[1]; [6]", "value": "−13", "unit": "%"}, {"measurement": "GPD2 gene expression, Change %", "setting": "[1]; [6]", "value": 0, "unit": "%"}, {"measurement": "GRHPR gene expression, Change %", "setting": "[1]; [6]", "value": 100, "unit": "%"}, {"measurement": "HO-1 gene expression, Change %", "setting": "[1]; [6]", "value": 110, "unit": "%"}, {"measurement": "MT-CO1 gene expression, Change %", "setting": "[1]; [6]", "value": 23, "unit": "%"}, {"measurement": "MT-CYB gene expression, Change %", "setting": "[1]; [6]", "value": 21, "unit": "%"}, {"measurement": "PGC-1a gene expression, Change %", "setting": "[1]; [6]", "value": 30, "unit": "%"}, {"measurement": "CYP3A4 gene expression vs control", "setting": "[1]; S10, statin group", "value": "statistically significantly up regulated"}, {"measurement": "increase in HO-1 gene expression", "setting": "[1]; S10, statin group (halved dose of Simvastatin), 4.5 day", "value": 160, "unit": "%"}, {"measurement": "AOX1 gene expression increased by", "setting": "[1]; S10, statin group, 4.5 day panel", "value": 56, "unit": "%"}, {"measurement": "neuronal viability (LDH) under calorie restriction vs zero control", "setting": "[2]; 10, 50 and 100 μg/ml from 4 DIV, only 25% of medium renewed at 5 and 6 DIV, FIG. 13", "value": "dose dependent viability loss; also recorded: confirmed statistically significantly"}, {"measurement": "toxicity to neurons", "setting": "[2]; 40-200 times the effective treatment dose", "value": "No toxicity was observed"}, {"measurement": "Effective dose", "setting": "[2]; rat cortical neurons", "value": "10-50 μg/m"}]}
{"smiles": "O=C(O)[C@H](O)CO", "note": "[DGA, D-glyceric acid]", "values": [{"measurement": "readiness to resume other physical exercise after 400 m run", "setting": "[3]; S1 and S3, qualitative", "value": "much more ready to resume other physical exercise"}, {"measurement": "400 m running times, control vs DGA", "setting": "[3]; S3, 4 day administration + 5 mg/kg before lunch", "value": "no significant differences"}]}
